# Reference: the supplement of paper PMC13380429
# Key:
# [1] = system: A549-ACE2 infected with SARS-CoV-2; experiment: SARS-CoV-2 infection rate relative to DMSO; higher = more infection; conditions: 24 h
# A549-ACE2 [2] = experiment: phospholipidosis EC50; higher = less potent phospholipidosis inducer
# Caco-2 [3] = experiment: relative viability EC50 (midpoint between 100% and the lowest measured viability); higher = less toxic; conditions: 72 h
# U2OS [4] = experiment: as above; conditions: 72 h
# Vero E6 [5] = experiment: as above; conditions: 72 h
# HepG2 [6] = experiment: as above; conditions: 72 h
# Caco-2 [7] = experiment: cell viability relative to DMSO; higher = less toxic; conditions: 72 h
# U2OS [8] = experiment: as above; conditions: 72 h
# Vero E6 [9] = experiment: as above; conditions: 72 h
# HepG2 [10] = experiment: as above; conditions: 72 h
# [11] = system: A549-ACE2 infected with SARS-CoV-2; experiment: cell count relative to DMSO; higher = less toxic; conditions: 24 h
# [12] = system: A549-ACE2 infected with SARS-CoV-2; experiment: morphology score (similarity to uninfected cells); higher = more like uninfected cells; conditions: 24 h
# A549-ACE2 [13] = experiment: drug-induced phospholipidosis relative to tamoxifen; higher = more phospholipidosis
# Caco-2 [14] = experiment: drug sensitivity score (DSS) for viability; higher = more toxic; extreme values may be limits of the assay; conditions: 72 h
# U2OS [15] = experiment: as above; conditions: 72 h
# Vero E6 [16] = experiment: as above; conditions: 72 h
# HepG2 [17] = experiment: as above; conditions: 72 h
smiles,measurement,setting,value
O=C(OC(C(F)(F)F)C(F)(F)F)N1CCN(Cc2cccc(Oc3ccccc3)c2)CC1 [JW-642],SARS-CoV-2 infection rate,[1]; 0.3 µM,100%
same,SARS-CoV-2 infection rate,[1]; 3 µM,88%
same,SARS-CoV-2 infection rate,[1]; 10 µM,99%
same,SARS-CoV-2 infection rate,[1]; 30 µM,90%
same,phospholipidosis EC50,A549-ACE2 [2]; 24 h,0.723 µM
same,phospholipidosis EC50,A549-ACE2 [2]; 48 h,1.17 µM
same,phospholipidosis EC50,A549-ACE2 [2]; 72 h,1.22 µM
same,relative viability EC50,Caco-2 [3],> 10 µM
same,relative viability EC50,U2OS [4],> 10 µM
same,relative viability EC50,Vero E6 [5],> 10 µM
same,relative viability EC50,HepG2 [6],> 10 µM
same,cell viability,Caco-2 [7]; 1 nM,98.3%
same,cell viability,Caco-2 [7]; 10 nM,106%
same,cell viability,Caco-2 [7]; 100 nM,99.4%
same,cell viability,Caco-2 [7]; 1000 nM,100%
same,cell viability,Caco-2 [7]; 10000 nM,92.4%
same,cell viability,U2OS [8]; 1 nM,101%
same,cell viability,U2OS [8]; 10 nM,98.1%
same,cell viability,U2OS [8]; 100 nM,102%
same,cell viability,U2OS [8]; 1000 nM,95.7%
same,cell viability,U2OS [8]; 10000 nM,97.6%
same,cell viability,Vero E6 [9]; 1 nM,93.1%
same,cell viability,Vero E6 [9]; 10 nM,106%
same,cell viability,Vero E6 [9]; 100 nM,96.3%
same,cell viability,Vero E6 [9]; 1000 nM,90.5%
same,cell viability,Vero E6 [9]; 10000 nM,102%
same,cell viability,HepG2 [10]; 1 nM,100%
same,cell viability,HepG2 [10]; 10 nM,116%
same,cell viability,HepG2 [10]; 100 nM,87.7%
same,cell viability,HepG2 [10]; 1000 nM,109%
same,cell viability,HepG2 [10]; 10000 nM,101%
same,cell count,[11]; 0.3 µM,103%
same,cell count,[11]; 3 µM,111%
same,cell count,[11]; 10 µM,105%
same,cell count,[11]; 30 µM,105%
same,morphology score,[12]; 0.3 µM,-0.02
same,morphology score,[12]; 3 µM,0.31
same,morphology score,[12]; 10 µM,-0.04
same,morphology score,[12]; 30 µM,0.29
same,drug-induced phospholipidosis,"A549-ACE2 [13]; 0.3 µM, 24 h",6.56%
same,drug-induced phospholipidosis,"A549-ACE2 [13]; 0.3 µM, 48 h",5.07%
same,drug-induced phospholipidosis,"A549-ACE2 [13]; 0.3 µM, 72 h",4.87%
same,drug-induced phospholipidosis,"A549-ACE2 [13]; 0.833333 µM, 24 h",21.9%
same,drug-induced phospholipidosis,"A549-ACE2 [13]; 0.833333 µM, 48 h",23.9%
same,drug-induced phospholipidosis,"A549-ACE2 [13]; 0.833333 µM, 72 h",23.8%
same,drug-induced phospholipidosis,"A549-ACE2 [13]; 3.33333 µM, 24 h",39.6%
same,drug-induced phospholipidosis,"A549-ACE2 [13]; 3.33333 µM, 48 h",54.4%
same,drug-induced phospholipidosis,"A549-ACE2 [13]; 3.33333 µM, 72 h",62.1%
same,drug-induced phospholipidosis,"A549-ACE2 [13]; 6.66667 µM, 24 h",46.5%
same,drug-induced phospholipidosis,"A549-ACE2 [13]; 6.66667 µM, 48 h",65.2%
same,drug-induced phospholipidosis,"A549-ACE2 [13]; 6.66667 µM, 72 h",70.4%
same,drug-induced phospholipidosis,"A549-ACE2 [13]; 10 µM, 24 h",46.2%
same,drug-induced phospholipidosis,"A549-ACE2 [13]; 10 µM, 48 h",57.8%
same,drug-induced phospholipidosis,"A549-ACE2 [13]; 10 µM, 72 h",64.8%
same,drug-induced phospholipidosis,"A549-ACE2 [13]; 30 µM, 24 h",54.6%
same,drug-induced phospholipidosis,"A549-ACE2 [13]; 30 µM, 48 h",68.1%
same,drug-induced phospholipidosis,"A549-ACE2 [13]; 30 µM, 72 h",73.8%
same,drug sensitivity score,Caco-2 [14],0
same,drug sensitivity score,U2OS [15],0
same,drug sensitivity score,Vero E6 [16],0
same,drug sensitivity score,HepG2 [17],0
N=C(NCCCCCCNC(=N)NC(=N)Nc1ccc(Cl)cc1)NC(=N)Nc1ccc(Cl)cc1 [chlorhexidine],SARS-CoV-2 infection rate,[1]; 0.1 µM,95%
same,SARS-CoV-2 infection rate,[1]; 0.3 µM,90%
same,SARS-CoV-2 infection rate,[1]; 1 µM,91%
same,SARS-CoV-2 infection rate,[1]; 3 µM,93%
same,phospholipidosis EC50,A549-ACE2 [2]; 24 h,9.72 µM
same,phospholipidosis EC50,A549-ACE2 [2]; 48 h,7.36 µM
same,relative viability EC50,Caco-2 [3],3.19 µM
same,relative viability EC50,U2OS [4],3.19 µM
same,relative viability EC50,HepG2 [6],2.32 µM
same,cell viability,Caco-2 [7]; 1 nM,99.3%
same,cell viability,Caco-2 [7]; 10 nM,90%
same,cell viability,Caco-2 [7]; 100 nM,98.1%
same,cell viability,Caco-2 [7]; 1000 nM,100%
same,cell viability,Caco-2 [7]; 10000 nM,16.4%
same,cell viability,U2OS [8]; 1 nM,99.9%
same,cell viability,U2OS [8]; 10 nM,101%
same,cell viability,U2OS [8]; 100 nM,95.9%
same,cell viability,U2OS [8]; 1000 nM,100%
same,cell viability,U2OS [8]; 10000 nM,32.2%
same,cell viability,Vero E6 [9]; 1 nM,96.5%
same,cell viability,Vero E6 [9]; 10 nM,99%
same,cell viability,Vero E6 [9]; 100 nM,97.9%
same,cell viability,Vero E6 [9]; 1000 nM,95.2%
same,cell viability,Vero E6 [9]; 10000 nM,56.1%
same,cell viability,HepG2 [10]; 1 nM,101%
same,cell viability,HepG2 [10]; 10 nM,103%
same,cell viability,HepG2 [10]; 100 nM,87%
same,cell viability,HepG2 [10]; 1000 nM,90.9%
same,cell viability,HepG2 [10]; 10000 nM,10.1%
same,cell count,[11]; 0.1 µM,103%
same,cell count,[11]; 0.3 µM,99%
same,cell count,[11]; 1 µM,107%
same,cell count,[11]; 3 µM,106%
same,morphology score,[12]; 0.1 µM,-0.01
same,morphology score,[12]; 0.3 µM,0.17
same,morphology score,[12]; 1 µM,0.17
same,morphology score,[12]; 3 µM,-0.05
same,drug-induced phospholipidosis,"A549-ACE2 [13]; 0.3 µM, 24 h",-0.01%
same,drug-induced phospholipidosis,"A549-ACE2 [13]; 0.3 µM, 48 h",3.12%
same,drug-induced phospholipidosis,"A549-ACE2 [13]; 0.3 µM, 72 h",3.95%
same,drug-induced phospholipidosis,"A549-ACE2 [13]; 0.833333 µM, 24 h",-1.75%
same,drug-induced phospholipidosis,"A549-ACE2 [13]; 0.833333 µM, 48 h",2.84%
same,drug-induced phospholipidosis,"A549-ACE2 [13]; 0.833333 µM, 72 h",2.67%
same,drug-induced phospholipidosis,"A549-ACE2 [13]; 3.33333 µM, 24 h",7.04%
same,drug-induced phospholipidosis,"A549-ACE2 [13]; 3.33333 µM, 48 h",15.7%
same,drug-induced phospholipidosis,"A549-ACE2 [13]; 3.33333 µM, 72 h",18.9%
same,drug-induced phospholipidosis,"A549-ACE2 [13]; 6.66667 µM, 24 h",31.6%
same,drug-induced phospholipidosis,"A549-ACE2 [13]; 6.66667 µM, 48 h",40.3%
same,drug-induced phospholipidosis,"A549-ACE2 [13]; 6.66667 µM, 72 h",39.3%
same,drug-induced phospholipidosis,"A549-ACE2 [13]; 10 µM, 24 h",58.6%
same,drug-induced phospholipidosis,"A549-ACE2 [13]; 10 µM, 48 h",57.2%
same,drug-induced phospholipidosis,"A549-ACE2 [13]; 10 µM, 72 h",61.2%
same,drug-induced phospholipidosis,"A549-ACE2 [13]; 30 µM, 24 h",105%
same,drug sensitivity score,Caco-2 [14],4.6
same,drug sensitivity score,U2OS [15],3.7
same,drug sensitivity score,Vero E6 [16],3
same,drug sensitivity score,HepG2 [17],6.5
